Assay results from patent US4393178A, “Fast crystallizing polyester compositions” (priority 1979, dated 1983).
Where two headings read alike, the source gives them in different places.

Tests used:
[1] = Half-crystallisation time (t1/2), isothermal DSC; type: physicochemical
Protocol: A DSC 2 Perkin Elmer scanning calorimeter was used.
10 mg of the sample of polymer material are placed in a capsule and introduced into the apparatus, wherein the sample is quickly heated to a temperature of 290° C. at which it is maintained during 1 minute.
The molten polymer material is then very quickly cooled by means of liquid air (at a rate of 320° C. per minute) until the crystallisation temperature is reached.
The crystallisation isotherm is registered on a temperature-time graph and the peak appearing on the registered isotherm is taken as the half-crystallisation time (t1/2).

[2] = Degradation constant K (melt degradation performance); type: physicochemical
Protocol: (§1) The melt degradation performance is a measure of the extent of degradation under molten conditions. A convenient method of quantifying the performance is by measuring the "K value". A method for determining this value in the molten state using an Instron Capillary rheometer is given in a paper by J. Devaux et al in Makromol.
(§2) This method is carried out on samples prepared by reacting the salt with the polyester on a 2 roll-mill at a temperature above the melting point of the polyester for 5 minutes and then pressing the product obtained into a 2 mm thick sheet using the same temperature for 3 minutes before cooling to room temperature. The method is described for polyethylene terephthalate but can be readily adapted for other polyesters.
For polyethylene terephthalate the K value in the presence of salt should be less than 60.

[3] = ΔT = Tc(cooling) - Tn(heating), DSC; type: physicochemical
Protocol: An alternative method for assessing the effectiveness of nucleation of an additive is to compare the difference between the value of the crystallisation peak on cooling (Tc) with that on heating (Tn) for a composition containing an ionisable salt. The value obtained from this comparison, Tc(cooling) -Tn(heating) is termed ΔT. […] Samples of polyester together with 1% of the salt under test were mixed in a 2-roll mill at 270° C. for 5 minutes. The sample produced was pressed into 2 mm thick sheets at 270° C. for 3 minutes and then cooled to room temperature. 10 mg of the sample was placed in a capsule and rapidly heated to 290° C. After maintaining this temperature for 1 minute the capsule was quenched in water. The crystallisation peak temperatures on heating (Tn) and cooling (Tc) were determined using heating and cooling rates of 10° C./minute on a Perkin Elmer DSC 2 machine.

[4] = Crystallisation peak temperature on heating (Tn), DSC; type: physicochemical; conditions: 1% salt deposited from solution on PET, pressed 280 °C 1 minute; heating rate 16 °C/minute; listed as disodium salt of o-hydroxy benzoic acid
Protocol: In one such DSC technique the crystallisation peak temperature difference, Tn(composition)--Tn(polyester) is determined by measuring the crystallisation peak temperatures on heating for the composition in comparison with the polyester of the composition not containing the ionisable salt. The detailed procedure is as follows. Compositions were prepared from the polyester and the additive by mixing on a 2-roll mill at 300° C. for 2 minutes. The sample was taken from the mill and pressed into a film in a compression moulding machine. 10 mg samples of the composition were placed in a capsule, rapidly heated to 290° C. and maintained at that temperature for 1 minute. The capsule was then dropped into water to quench the polymer and prevent crystallisation. The sample was then placed in a Perkin Elmer DSC 2 machine and heated at a rate of 10° C./minute until reaching a temperature of 290° C. The crystallisation peak temperature observed on this heating cycle is recorded and compared with the value for the polyester not containing the additive.
Samples of polyethylene terephthalate (I.V. =0.73) containing 1% of the salts listed in Table 2 were prepared by compounding at 300° C. on a 2-roll mill for 2 minutes. The samples were evaluated to determine Tn(composition-Tn(polyester), the total number of end groups, the number of carboxylate groups and the number of hydroxyl and carboxyl groups.
The salts listed in Table 3 were deposited from solution on the surface of polyethylene terephthalate chip to give a concentration of 1% by weight of salt. The product was dried under vcuum at 96° C. for 3 hours. The compositions were pressed into film using a temperature of 280° C. for 1 minute. The DSC measurements were made after quenching from the melt to prevent crystallisation and using a heating rate of 16° C./minute.
1% by weight of the sodium salt of saccharin was deposited on the surface of granules of a polyethylene terephthalate homopolymer of I.V. =0.73 by evaporating an aqueous solution of the salt from the granules by drying at 96° C. under vacuum for 3 hours. The granules obtained were compression moulded into film by pressing at 280° C. for 60 second. The film was used for measurements of Tn at a heating rate of 16° C./minute.
The effect of the salts listed in Table 4 was determined by taking granules of a polymer of poly(ethylene terephthalate) homopolymer having an intrinsic viscosity of 0.73 and evaporating a solution of the salt in methanol or water from the surface of the granules by drying at 96° C. under vacuum for 3 hours. The proportions of polymer and solution used were such as to give a concentration of 1% of salt by weight of the final dry composition. The granules obtained were compression-moulded into film at 280° C. for various periods of time. The film was used for measurement of Tn as hereinbefore described.
Two samples of polyethylene terephthalate chip (I.V. =0.73) were coated from solution with 1% of the sodium salt of o-hydroxybenzoic acid and the disodium salt of the same acid respectively. After drying for 3 hours in a vacuum oven at 95° C. films were prepared by pressing the products for 1 minute at 280° C.

[5] = Crystallisation peak temperature on heating (Tn), DSC, block copolymer; type: physicochemical; conditions: 1% salt, 2-roll mill 270 °C 2 minutes, block copolymer; heating rate 10 °C/minute
Protocol: A block copolymer containing 5% by weight of polyethylene glycol units of molecular weight 1540 in chip form was blended with a solution of the sodium salt of o-chlorobenzoic acid to give a salt concentration of 1% by weight of the polyester. Samples were prepared for DSC analysis using the procedure of Example 15.
(§3) The polymer used in Example 16 and 1% of the disodium salt of o-hydroxy benzoic acid were compounded on a 2-roll mill at 270° C. for 2 minutes. […] (measured at a heating rate of 10° C./minute).

[6] = End group determination, block copolymer; type: physicochemical; conditions: 1% salt, 2-roll mill 270 °C 2 minutes
Protocol: The total number of end groups in the polyester were found by determining the intrinsic viscosity of the polyester and using the correlation between I.V. and number of end groups given in Transactions of the Faraday Societ 1961, Volume 57, pages 150 to 159. The numbers of hydroxyl and carboxyl groups were also determined according to the procedure given in this paper.
as §3

[7] = Degradation constant K, block copolymer; type: physicochemical; conditions: 1% salt, 2-roll mill 270 °C 2 minutes, compared with polyester itself
Protocol: as §1, with “Makromol. Chem. 179, 2201-2209 (1978).” for “Makromol.”
as §2, §3

[8] = Degradation constant K (melt degradation performance); type: physicochemical; conditions: 1% salt deposited from solution on PET (Examples 13-15); listed as disodium salt of o-hydroxy benzoic acid
[9] = Solubility parameter δ of the acid
[10] = Crystallinity of injection moulded articles; type: physicochemical; conditions: 0.5% salt, mould 120 °C, cycling time 12 seconds, based on heat of fusion 24 Cal/g
Protocol: The extruded product of Example 6 has been dried (120° C.) in a ventilated oven. The obtained pellets have been moulded by injection in a Buhler Rover 63 machine.
Different cycling times have been experimented.

[11] = water; cited from earlier work

| SMILES | t1/2 (sec) 110° C. [1] [s] | t1/2 (sec) 120° C. [1] [s] | K ([2]; 1% salt in PET, 2-roll mill 270 °C 5 min, molten state 290 °C) | ΔT ([3]; 1% salt in PET, 2-roll mill 270 °C 5 min, 10 °C/minute) [°C] | Tn (16° C./min) [4] [°C] | Tn [5] [°C] | total number of end groups determined from the intrinsic viscosity [6] | K value [7] | K [8] | K [2] | ΔT [3] | δ × pKH.sbsb.2O [9] | crystallinity [10] [%] | pKH.sbsb.2O [11] |
| --- | --- | --- | --- | --- | --- | --- | --- | --- | --- | --- | --- | --- | --- | --- |
| O=C(O)c1ccccc1O [ortho-ONa-benzoic acid] | 70 | 49 | 24 | 110 | 108 | 100 | 137 | less than that for the polyester itself | 24 |  |  |  |  |  |
| O=C([O-])c1ccc([N+](=O)[O-])cc1Cl.[Na+] | 90 | 48 |  |  |  |  |  |  |  | 39 | 103 | 26 | 40 | 2 |
